Source: patent US20020037864A1, “2'-Propionate clarithromycin dodecyl sulfate and its preparation and pharmaceutical composition containing the same” (priority 2000, published 2002)
Converted amounts (≈) assume the structure as drawn. Where a name gives a salt, the structure may show the parent alone.

Assays:
[1] = tested on: Streptococcus herbarum, Streptococcus haemolyticus, Staphylococcus aureus, Enterococcus faecalis, Staphylococcus epidermidis, Listeria monocytogenes, and ATCC …; test: Antibacterial activity in vitro comparison assay, agar dilution method (NCCLS); type: cell-based; details: for MIC50 / MIC90: agar dilution, panel of test strains
Procedure: The primary antibacterial activity in vitro comparison assay between compound (I) (named CES hereafter) and clarithromycin are performed by No. 1 Hospital of Zhejiang Medical University. The agar dilution method, according to the method recognized by NCCLS (“National clinical analysis criterion protocol” (2nd edition), Ye Yingwu and Wang Yusan ed., p562, Southeast University Press), is taken in the following pharmaceutical sensitivity tests against Streptococcus herbarum, Streptococcus haemolyticus, Staphylococcus aureus, Enterococcus faecalis, Staphylococcus epidermidis, Listeria monocytogenes, and ATCC 25923.

mice and rat = details: orally administrated to mice and rat; cited from earlier work
[2] = pH value of aqueous mixture (Chinese Pharmacopoeia 2000, Annex VI H); type: physicochemical; details: 0.4 g added into 10 ml water
Procedure: The pH value of compound (I) of present invention is 5-7 as pH value analyzer (Model PHS-3C, Shanghai leici equipment factory) determined according to the method described in ANNEX VIH (on the measurement of pH value) to Chinese Pharmacopoeia (2000 edition), wherein compound (I) of present invention 0.4 g is added into 10 ml water and stirring extensively.

mice = test: Maximal tolerance test; type: in vivo
Procedure: Acute toxicity animal trial to compound (I) of the present invention is carried out by using 20 KM mice (10 males) weighted 18-22 g. […] Subsequently, the maximal tolerance dose to mice is greater than 8 g/kg as maximal tolerance test determined. […] The mice restored gradually 3 days after administration of compound (I).

[3] = Solubility (physical & chemical property); type: physicochemical
[4] = Acute toxicity animal trial, oral administration; type: in vivo; details: both sexes, mouse, in vivo, po; orally administrated to KM mice
KM mice = test: Acute toxicity animal trial, oral administration; type: in vivo; details: mice after administration

| SMILES | MIC50 [1] [µg/mL] | MIC90 [1] | LD50 (mice and rat) [mg/kg] | pH value [2] | maximal tolerance dose (mice) | antibacterial activity relative to clarithromycin ([1]; in vitro comparison) | solubility in acetone, ethanol, methanol and chloroform [3] | solubility in water [3] | LD50 [4] [mg/kg] | death (KM mice) | signs after administration (KM mice) | time to gradual restoration (KM mice) [days] |
| --- | --- | --- | --- | --- | --- | --- | --- | --- | --- | --- | --- | --- |
| CC[C@H]1OC(=O)[C@H](C)[C@@H](O[C@H]2C[C@@](C)(OC)[C@@H](O)[C@H](C)O2)[C@H](C)[C@@H](O[C@@H]2O[C@H](C)C[C@H](N(C)C)[C@H]2O)[C@](C)(OC)C[C@@H](C)C(=O)[C@H](C)[C@@H](O)[C@]1(C)O [clarithromycin] | 0.25 (≈ 0.334 µM) | ≧128 μg/ml | 2700 to 3500 |  |  |  |  |  |  |  |  |  |
| CCC(=O)OC1C(O[C@@H]2C(C)[C@H](OC3CC(C)(OC)C(O)C(C)O3)[C@@H](C)C(=O)O[C@H](CC)[C@@](C)(O)[C@H](O)C(C)C(=O)[C@H](C)C[C@@]2(C)OC)OC(C)CC1N(C)C (some centres unmarked) [compound (I), 2′-propionate clarithromycin dodecyl sulfate] | 0.25 | ≧128 μg/ml |  | 5-7 | greater than 8 g/kg | comparable to that of clarithromycin | freely soluble | almost insoluble | > 7500 | no death was observed | furriery flab, drowsiness, spiritless and reduced movement | 3 |
